Measurements from patent US8956445B2, “High stability diionic liquid salts” (Sigma-Aldrich Co., priority 2004, dated 2015).
Where two headings read alike, the source gives them in different places.

Columns and labels:
[1] = exposed to the atmosphere and heated; cited from earlier work
[2] = Method: Thermal stabilities were measured by immobilizing an approximate 0.15-0.20 microns film of the ionic liquid on the inner wall of a fused silica capillary. The capillary was then heated slowly in an oven and a very sensitive flame ionization detector (or mass spectrometer) used to detect any volatilization or decomposition of the ionic liquid. There are several advantages of using this set-up to measure the thermal stabilities of ionic liquids. The thermal stability is measured in the absence of oxygen by purging the capillary with a continuous flow of an inert gas such as helium, hydrogen, or nitrogen. […] Finally, this approach can use mass spectrometry detection to determine the likely volatilization/decomposition products.
[3] = values taken from reference 31, cited from earlier work
Remark: listed apart in the source
[4] = Surface tension (DuNuoy Tensiometer); type: physicochemical; details: room temperature (23° C.)
[5] = Solvation interaction parameters by inverse gas-liquid chromatography (Abraham solvation model); type: physicochemical
Method: The preparation of the capillary columns for inverse gas-liquid chromatographic analysis was performed using a previously described procedure.^31 All capillary columns had efficiencies between 2100 to 2500 plates/meter. Characterization of the capillary columns and probe molecule descriptions are listed in supplemental information. Multiple linear regression analysis (MLRA) and statistical calculations were performed using the program Analyse-it (Microsoft, USA).
We have previously reported that the Abraham solvation model, a linear free energy approach that utilizes inverse gas-liquid chromatography to describe the solvation properties of a liquid, can be used to characterize room temperature ionic liquids.^31 Described by equation 1, the model provides the so-called “interaction parameters” (r, s, a, b, l) by using multiple linear regression analysis to fit the retention factor (k, determined chromatographically) to the solute descriptors (R2, π2^H, α2^H, β2^H, log L^16) for a wide variety of probe solute molecules. […] The solvation properties of four dicationic ionic liquids (see Table 4) were evaluated and the interaction parameters compared to those obtained for their traditional monocationic analogues 1-butyl-3-methylimidazolium and 1-butyl-1-methylpyrrolidinium ionic liquids.
Previously we characterized a large number of room temperature ionic liquids in terms of multiple solvation interactions using the solvation parameter model, shown in equation 3.^44 log k=c+rR2+sπ2^H+aα2^H+bβ2^H+l log L^16 [3] This approach utilizes inverse gas-liquid chromatography and allows the use of a large number of probe molecules to deconvolute solute retention in terms of the type and magnitude of individual solvation interactions. The solute descriptors (R2, π2^H, α2^H, β2^H, log L^16) from Equation 3 are obtained from the literature for many probe molecules containing a variety of functional groups.^45 The retention factor is determined chromatographically. The solute descriptors and retention factors are subjected to multiple linear regression analysis to obtain the interaction parameter coefficients (r, s, a, b, l), which ultimately characterize the stationary phase: r is the ability of the diionic liquid containing-stationary phase to interact with π and n electrons of the solute, s is a measure of the dipolarity/polarizability of the diionic liquid containing-stationary phase, a defines the diionic liquid containing-stationary phase hydrogen bond basicity, b is a measure of the hydrogen bond acidity, and/refers to the ability of the diionic liquid containing-stationary phase to separate adjacent members of a homologous series.^46
Test solutes used to determine interaction parameters and solvation thermodynamics were dissolved in dichloromethane. A Hewlett-Packard model 5890 gas chromatograph and a Hewlett-Packard 6890 series integrator were used for all separations. Split injection and flame ionization detection were utilized with injection and detection temperatures of 250° C. Helium was used as the carrier gas with a column inlet pressure of 3.1 psi and flow rate of 1.0 mL/min. Methane was used to determine the dead volume of the column. Multiple linear regression analysis and statistical calculations were performed using the program Analyze-it (Microsoft).

[6] = Refractive index (Abbe-3L refractometer); type: physicochemical; details: 23° C.
Method: (§1) The densities of the ionic liquids or, more correctly, […] (used synonymously except as indicated otherwise explicitly or by context) was determined at 23° C. by placing 2.0 mL of the ionic liquid in a 2.0 mL volumetric tube and weighing by difference. The melting points of the ionic liquids were determined using a Perkin Elmer Pyris 1 Differential Scanning calorimeter (Boston, Mass.). Typical methods involved using a 10° C./min temperature ramp to determine and identify the first and second order thermal transitions. […] For solid compounds, the melting points were verified using a capillary melting point apparatus. Refractive index measurements were conducted at 23° C. using a Bausch & Lomb Abbe-3L refractometer.

[7] = Density (2.0 mL volumetric tube, weighing by difference); type: physicochemical; details: 23° C.
Method: as §1

[8] = 0.15-0.20 micron film in fused silica capillary, helium flow, FID, tested only up to 400° C.

Structure (SMILES) | Miscibility with Heptane | Miscibility with Water | thermal stability (volatilization/decomposition temperature) [2] | Surface Tension [4] | a (hydrogen bond basicity) ([5]; 40° C.) | b (hydrogen bond acidity) ([5]; 40° C.) | c (interaction parameter table, constant) ([5]; 40° C.) | l (dispersion forces) ([5]; 40° C.) | r (interaction via nonbonding and π-electrons) ([5]; 40° C.) | s (dipolarity/polarizability) ([5]; 40° C.) | a (hydrogen bond basicity) ([5]; 70° C.) | b (hydrogen bond acidity) ([5]; 70° C.) | c (interaction parameter table, constant) ([5]; 70° C.) | l (dispersion forces) ([5]; 70° C.) | r (interaction via nonbonding and π-electrons) ([5]; 70° C.) | s (dipolarity/polarizability) ([5]; 70° C.) | a (hydrogen bond basicity) ([5]; 100° C.) | b (hydrogen bond acidity) ([5]; 100° C.) | Refractive Index [6] | Density [7] | other results
CCCCn1cc[n+](C)c1.[Cl-] [BMIM-Cl, 1-butyl-3-methylimidazolium chloride, reference compound] |  |  |  |  |  |  |  |  |  |  |  |  |  |  |  |  |  |  |  |  | temperature of obvious signs of decomposition [1]: ≥ 150 °C; thermal stability (volatilization/decomposition temperature) [2, 8]: 145 °C
CCCCn1cc[n+](C)c1.O=S(=O)([N-]S(=O)(=O)C(F)(F)F)C(F)(F)F [BMIM—NTf2, 1-butyl-3-methylimidazolium bis[(trifluoromethylsulfonyl)imide]] |  |  |  |  |  |  |  |  |  |  |  |  |  |  |  |  |  |  |  |  | a (hydrogen bond basicity) ([3]; 40° C.): 2.02; b (hydrogen bond acidity) ([3]; 40° C.): 0.36; c (interaction parameter table, constant) ([3]; 40° C.): −2.87; l (dispersion forces) ([3]; 40° C.): 0.63; r (interaction via nonbonding and π-electrons) ([3]; 40° C.): 0; s (dipolarity/polarizability) ([3]; 40° C.): 1.89; a (hydrogen bond basicity) ([3]; 70° C.): 1.75; b (hydrogen bond acidity) ([3]; 70° C.): 0.38; c (interaction parameter table, constant) ([3]; 70° C.): −3.03; l (dispersion forces) ([3]; 70° C.): 0.56; r (interaction via nonbonding and π-electrons) ([3]; 70° C.): 0; s (dipolarity/polarizability) ([3]; 70° C.): 1.67; a (hydrogen bond basicity) ([3]; 100° C.): 1.55; b (hydrogen bond acidity) ([3]; 100° C.): 0.24; c (interaction parameter table, constant) ([3]; 100° C.): −3.13; l (dispersion forces) ([3]; 100° C.): 0.49; r (interaction via nonbonding and π-electrons) ([3]; 100° C.): 0; s (dipolarity/polarizability) ([3]; 100° C.): 1.60; thermal stability (volatilization/decomposition temperature) [2, 8]: 185 °C
CCCC[N+]1(CCCCCCCCC[N+]2(CCCC)CCCC2)CCCC1.O=S(=O)([N-]S(=O)(=O)C(F)(F)F)C(F)(F)F.O=S(=O)([N-]S(=O)(=O)C(F)(F)F)C(F)(F)F [C9(bpy)2-NTf2, 1,9-di(butylpyrrolidinium)nonane di-bis[(trifluoromethyl)sulfonyl]imida] | Immiscible | Immiscible | 330 °C |  |  |  |  |  |  |  |  |  |  |  |  |  |  |  |  |  | 
Cn1cc[n+](CCCCCCCCC[n+]2ccn(C)c2)c1.O=S(=O)([N-]S(=O)(=O)C(F)(F)F)C(F)(F)F.O=S(=O)([N-]S(=O)(=O)C(F)(F)F)C(F)(F)F [C9(mim)2-NTf2, 1,9-di(3-methylimidazolium)nonane di-bis[(trifluoromethyl)sulfonyl]imidate] | Immiscible | Immiscible | 350-360 °C | 43.1 dynes/cm | 1.83 | 0.47 | −2.86 | 0.62 | 0.16 | 1.81 | 1.75 | 0.20 | −2.95 | 0.51 | 0.11 | 1.76 | 1.50 | 0.15 | 1.442 | 1.47 g/mL | c (interaction parameter table, constant) ([5]; 100° C.): −3.06; l (dispersion forces) ([5]; 100° C.): 0.43; r (interaction via nonbonding and π-electrons) ([5]; 100° C.): 0.11; s (dipolarity/polarizability) ([5]; 100° C.): 1.64
C[N+]1(CCCCCCCCC[N+]2(C)CCCC2)CCCC1.O=S(=O)([N-]S(=O)(=O)C(F)(F)F)C(F)(F)F.O=S(=O)([N-]S(=O)(=O)C(F)(F)F)C(F)(F)F [C9(mpy)2-NTf2, 1,9-di(methylpyrrolidinium)nonane di-bis[(trifluoromethyl)sulfonyl]imidate] | Immiscible | Immiscible | > 400 °C | 42.2 dynes/cm | 1.98 | 0.32 | −2.83 | 0.62 | 0.27 | 1.71 | 1.65 | 0.35 | −2.85 | 0.48 | 0.34 | 1.52 | 1.48 | 0.15 | 1.436 | 1.41 g/mL | c (interaction parameter table, constant) ([5]; 100° C.): −2.99; l (dispersion forces) ([5]; 100° C.): 0.42; r (interaction via nonbonding and π-electrons) ([5]; 100° C.): 0.23; s (dipolarity/polarizability) ([5]; 100° C.): 1.49
O=S(=O)([N-]S(=O)(=O)C(F)(F)F)C(F)(F)F.O=S(=O)([N-]S(=O)(=O)C(F)(F)F)C(F)(F)F.c1ccc(Cn2cc[n+](CCCCCCCCCCCC[n+]3ccn(Cc4ccccc4)c3)c2)cc1 [C12(benzim)2-NTf2, 1,12-di(3-benzylimidazolium)dodecane di-bis[(trifluoromethyl)sulfonyl]imidate] | Immiscible | Immiscible | 350-360 °C | 41.5 dynes/cm | 1.96 | 0.84 | −2.94 | 0.66 | 0.11 | 1.65 | 1.75 | 0.57 | −3.07 | 0.56 | 0.07 | 1.62 | 1.44 | 0.52 | 1.482 | 1.37 g/mL | c (interaction parameter table, constant) ([5]; 100° C.): −3.12; l (dispersion forces) ([5]; 100° C.): 0.46; r (interaction via nonbonding and π-electrons) ([5]; 100° C.): 0; s (dipolarity/polarizability) ([5]; 100° C.): 1.47
Cn1cc[n+](CCCCCCCCCCCC[n+]2ccn(C)c2)c1.F[P-](F)(F)(F)(F)F.F[P-](F)(F)(F)(F)F [C12(mim)2-PF6, 1,12-di(3-methylimidazolium)dodecane di-hexafluorophosphate] | Immiscible | Immiscible |  | 53.4 dynes/cm |  |  |  |  |  |  |  |  |  |  |  |  |  |  | 1.436 | 1.36 g/mL | 
